This note sets out measurements from ChEMBL document CHEMBL3045229, “Molluscicidal and insecticidal potential of monoterpenes on the white garden snail, Theba pisana (Muller) and the cotton leafworm, Spodoptera littoralis (Boisduval)” (2010).

The subject of assay [1] is Theba pisana. Briefly: Contact molluscicidal activity against Theba pisana (white garden snail ) exposed to compound throgh application to surface of snail body inside shell assessed as compound level per snail causing snail mortality after 24 hr. The class given is functional.
The test system of assay [2] is Spodoptera littoralis. Briefly: Fumigant insecticidal activity against cotton leafworm Spodoptera littoralis third-instar larvae fed on fresh castor bean leaves assessed as insect mortality after 24 hr. The class given is functional.
Assay [3] has as its system Theba pisana. Briefly: Fumigant molluscicidal activity against Theba pisana (white garden snail) assessed as snail mortality after 24 hr. The class given is functional.
For assay [4], the system named is Spodoptera littoralis. Briefly: Contact insecticidal activity against cotton leafworm Spodoptera littoralis third-instar larvae exposed to 1 mg/larva compound application through dorsum of larvae followed by feeding on fresh castor bean leaves assessed as insect mortality after 24 hr. In kind it is functional, Skin of body. To be noted: for Activity: Skin of body.

≈ marks a conversion by molar mass, not a printed value. Calls of active or inactive are those of the source. The rule behind the calls is not given here.

Turning to `CC(C)=CCC/C(C)=C/CO` [GERANIOL], the LD50 in assay [1] turned out to be 42.29 µg. The 50% lethal concentration (LC50) in assay [2] and in assay [3] was > 100 µg/mL throughout. Besides, the mortality in assay [4] is on record as 76.7%.
As to `C=CC(=C)CCC=C(C)C` [MYRCENE], in assay [1], the LD50 is >1000 µg. The LC50 in assay [2] was > 100 µg/mL; in assay [3] it was 3.88 µg/mL (≈ 28.5 µM). Moreover, the outcome in assay [4] was Active.
The corresponding values for `C=C1C2CCC(C2)C1(C)C` (configuration not stated) [CAMPHENE] are >1000 µg, > 100 µg/mL, 33.5 µg/mL (≈ 246 µM) and “Active”.
The corresponding values for `CC12CCC(CC1)C(C)(C)O2` [EUCALYPTOL] are 223.44 µg, 4.34 µg/mL (≈ 28.1 µM), 4.17 µg/mL (≈ 27 µM) and “Active”.
`C=C[C@@](C)(O)CC=C(C)C` [(-)-LINALOOL]: in assay [4], the result was Active.
As to `C=C(C)[C@@H]1CC=C(C)C(=O)C1` [L-CARVONE], the LD50 in assay [1] was 132.18 µg. In addition, the LC50 came out at 19.5 µg/mL (≈ 130 µM) in assay [2] and 27 µg/mL (≈ 180 µM) in assay [3]. Also, in assay [4], the result was Active.
For `CC1CCC(C(C)C)C(O)C1` (configuration not stated) [MENTHOL], in assay [1], the LD50 was 99.44 µg. Also, the LC50 is 9.36 µg/mL (≈ 59.9 µM) in assay [2] and > 100 µg/mL in assay [3]. Further, in assay [4], the result was Active.
Take `CNC(=O)Oc1cc(C)c(SC)c(C)c1` [METHIOCARB]: the LD50 in assay [1] was 188.68 µg.
For `CC1(C)C(=O)[C@@]2(C)CC[C@H]1C2` [(L)-FENCHONE], the LD50 in assay [1] came to 135.36 µg. Also, the LC50 in assay [2] came out at 2.27 µg/mL (≈ 14.9 µM); in assay [3], 2.51 µg/mL (≈ 16.5 µM). In addition, the result in assay [4] was Active.
Turning to `CC(C)c1ccc(C=O)cc1` [CUMINALDEHYDE], the LD50 in assay [1] turned out to be 28.37 µg. Also, the median lethal concentration (LC50) in assay [2] and in assay [3] was > 100 µg/mL in each case. In assay [4], the mortality is given as 70%.
In the case of `C=C(C)[C@@H]1CC=C(C)CC1` [(-)-LIMONENE], the LD50 in assay [1] came to 60.27 µg. The LC50 in assay [2] was found to be 11.4 µg/mL (≈ 83.4 µM); in assay [3] it was 8.39 µg/mL (≈ 61.6 µM). In addition, the result in assay [4] was Active.
The matching figures for `CC12CCC(CC1=O)C2(C)C` (configuration not stated) [CAMPHOR]: 89.15 µg, 5.61 µg/mL (≈ 36.9 µM), 7.98 µg/mL (≈ 52.4 µM) and “Active”.

A word on the LC50: it is the concentration lethal to half of the exposed cells or organisms. For orientation: mortality means the percentage killed.
